Assay results published in patent US20030049698A1, “Diagnosis and treatment of gastrointestinal disease” (priority 2002, published 2003).

Columns and labels:
CCK-B/gastrin receptor = target: T1, CCK-B/gastrin receptor (Rattus norvegicus, UniProt P30553); details: reportedly; cited from earlier work
T1 sequence (P30553 1-452): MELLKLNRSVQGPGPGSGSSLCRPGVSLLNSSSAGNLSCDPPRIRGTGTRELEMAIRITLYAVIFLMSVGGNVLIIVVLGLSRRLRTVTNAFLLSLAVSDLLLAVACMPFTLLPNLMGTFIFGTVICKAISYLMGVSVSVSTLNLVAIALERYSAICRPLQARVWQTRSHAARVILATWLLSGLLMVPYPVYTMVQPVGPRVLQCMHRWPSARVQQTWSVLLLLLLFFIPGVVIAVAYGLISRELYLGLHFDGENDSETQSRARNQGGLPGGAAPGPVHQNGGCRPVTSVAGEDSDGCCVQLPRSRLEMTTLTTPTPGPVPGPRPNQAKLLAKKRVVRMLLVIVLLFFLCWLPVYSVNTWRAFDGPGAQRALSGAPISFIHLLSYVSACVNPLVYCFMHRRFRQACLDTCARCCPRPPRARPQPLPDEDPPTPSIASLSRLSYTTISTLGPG

gastrin deficient mice [1] = assay: Parietal cell and ECL cell counts by immunohistochemistry; format: in vivo
Method: (§1) The mice were fasted 24 hours prior to sacrifice.
(§2) At the time of sacrifice, the stomach was divided into thirds longitudinally. One section was fixed in Carnoy's fixative overnight, and then embedded in paraffin. Routine H&E staining was performed. Parietal cells were stained using an antibody to the β subunit of H+/K+-ATPase MA3-923 (Affinity Bioreagents, Golden, Colo.) at a final dilution of 1:100, as previously described (62). Ten well oriented fundic glands were examined for parietal cell number, with the result expressed as number of parietal cells per gland (51).
Small tissue specimens (2×4 mm) were taken from the greater curvature of the oxyntic mucosa. They were fixed either in 4% 1-Ethyl-3(3-dimethylaminopropyl)-carbodiimide hydrochloride (Sigma, St. Louis, Mo.) for histamine staining, or in 4% paraformaldehyde for VMAT-2 staining, for 8-12 h at 4° C., then rinsed with 20% sucrose in 0.1 M phosphate-buffered saline (pH 7.4). Fresh frozen tissue sections were cut in a cryostat (Bright, Huntington, England) at 10 μm thickness. The sections were thawed onto gelatin-coated glass slides. After washing twice for 10 min with phosphate-buffered saline (pH 7.4), containing 0.25% Triton X-100 (PBS-T), the sections were incubated with either histamine antibody 8431 rabbit (Eurodiagnostic, Mahnö, Sweden) at a final dilution of 1:200 or VMAT-2 antibody B-GP 280-1 (Alpha Diagnostic Int., San Antonio, Tex.) at a dilution of 1:2000 overnight at 4° C. After washing twice with PBS-T (10 min each time), the sections were incubated for 1 h at room temperature with FITC-conjugated goat anti-rabbit IgG (Dako, Glostrup, Denmark) for histamine at a 1:40 dilution or donkey anti-guinea pig IgG (Jacksson InmunoResearch, Göteborg, Sweden) for VMAT-2 at a 1:100 dilution. […] The number of immunostained cells were counted and exressed as number per gland of mucosa.
Parietal and ECL cells were stained immunohistochemically as above. At least ten well oriented glands were then assessed for the number of positively stained cells per gland.

H+/K+-ATPase = H+/K+-ATPase expression by immunohistochemical analysis; format: in vivo, mice; details: compared to infusion of saline alone
Method: as §1, §2

gastrin deficient mice [2] = assay: Electron microscopy of parietal cells (activation, vacuolar canaliculi, lipofuscin bodies); format: in vivo
Method: as §1
Small tissue specimens (<1 mm^3) were taken from the oxyntic gland area and immediately immersed in a mixture of […] 1% glutaraldehyde, 3% formaldehyde, 0.075M sodium phoshpate buffer, pH 7.2, for 6 hours. The specimens were post-fixed in 1% osmium tetroxide for 1 hour, dehydrated in graded acetone solutions and embedded in Epon 812. Ultrathin sections (60-80 nm) were cut on a LKB MK III Ultratome, contrasted with uranyl acetate and lead citrate and examined in a Philips CM10 (Philips,) transmission electron microscope (63). Parietal cells were identified by the presence of secretory canuliculi and/or tubulovesicles, and ECL cells were identified by the presence of characteristic granules and vesicles in the cytoplasm. Point counting methods were used to analyze the voulume density of the various organelles as previously described (64,65). The cells were photographed (nucleated profiles only) at 6,000× magnification; the prints were then enlarged to 20,000× for planimetric analysis. Activated parietal cells were defined as cells having secretory canuliculi in their cytoplasm. The percentage of activated parietal cells was determined by analyzing the electron micrographs of 100 parietal cells per group. Vacuolar canaliculi were defined as canuliculi containing lysosomal bodies and/or vacuoles in their lumen. Lipofuscin bodies were identified by their high electron density (osmiophilia) in the cytoplasm.

gastrin deficient mice [3] = assay: Gastric fundic mucosa proliferation by BrdU incorporation; format: in vivo; details: infusion 10 nmol/kg/hr; G-17 effect at one day; versus saline or G-17 alone
Method: as §1
Immunohistochemical detection of BrdU incorporation was performed using the avidin-biotin monoclonal antibody technique as previously described (51). Ten well oriented oxyntic glands or colonic crypts were counted per slide. Of the ten colonic crypts, 4 were obtained from the rectum, 3 from the descending colon, and 3 from the ascending colon. The BrdU labeling index was calculated by counting the number of BrdU-positive cells per gland/crypt and expressing the result as a percentage of the total number of cells per gland/crypt.

gastrin deficient mice [4] = assay: Gastric acid secretion, pyloric ligation, after infusion in gastrin deficient mice; format: in vivo; details: 10 nmol/kg/hr, 4 hours pyloric ligation, saline 5.4±2.0 nEq
Method: Animals were operated and sacrificed under anesthesia with Metofane.
as §1
After food deprivation for 24 hours, the mice were anesthetized with avertin, the abdominal cavity was incised, and each stomach was rinsed with 1 ml saline through a canula placed in the pylorus. The pylorus was then ligated and the gastric juice was collected 4 hours later (61). The acidity of the gastric contents was measured by titration with 0.02 N NaOH and expressed as H^+ nEq.

Row | Molecule | potency relative to YF476 (CCK-B/gastrin receptor) | effect on ECL cell number (histamine or VMAT-2 staining) (gastrin deficient mice [1]; any time point examined) | increase in the number of parietal cells compared to saline (gastrin deficient mice [1]; by day 14 of infusion) [%] | effect on parietal cell number (in words) (gastrin deficient mice [1]; versus saline, or combination versus G-17 alone) | effect on H+/K+-ATPase expression (intensity of immunostaining) (H+/K+-ATPase) | lipofuscin bodies, percentage of cell volume (gastrin deficient mice [2]; 14 day infusion, saline 0.26±0.10%) [%] | vacuolar canaliculi, percentage of cell volume (gastrin deficient mice [2]; 14 day infusion, saline 0.38±0.38%) [%] | activated parietal cells (gastrin deficient mice [2]; after 14 days of infusion, saline 27%) [%] | proliferation rate of the gastric fundic mucosa (BrdU incorporation) (gastrin deficient mice [3]) | acid output (gastrin deficient mice [4]; after 14 days of infusion) [nEq] | acid output (gastrin deficient mice [4]; after one day of infusion) [nEq] | acid output (gastrin deficient mice [4]; after six days of infusion) [nEq]
1 | Cc1cccc(NC(=O)N[C@@H]2N=C(c3ccccc3)c3ccccc3N(CC(=O)c3ccccc3C)C2=O)c1 [YM022] | about 5 times |  |  |  |  |  |  |  |  |  |  | 
2 | gastrin-17 [G-17] |  | neither G-17, G17-Gly, or the combination influenced ECL cell number | 65 | significant increase in parietal cell number | no effect on H+/K+-ATPase expression | 1.88±0.27 | 7.50±2.40 | 27 | significantly increased proliferation rate | 12.0±2.2 | 21.8±8.8 | 37.4±9.4
